Results reported in patent US5002943A, “Condensed diazepinones, processes for preparing them and pharmaceutical compositions containing these compounds” (priority 1988, dated 1991).
Structures can show the parent of a compound that is named as a salt. Where two headings read alike, the source gives them in different places.

How the values were obtained:
secretion of saliva = experiment: Salivation-inhibiting effect in the rat (pilocarpine-induced saliva secretion); assay type: in vivo, male THOM rats; conditions: iv; urethane-anaesthetised rat; i.v.; pilocarpine 2 mg/kg s.c.; read-out: -log ED50, Salivation (converted)
Method: (§1) The objective of the methods was to confirm the selectivity of the antimuscarinic effect. Those substances which had been selected on the basis of "in vitro" tests were tested for their
2. Salivation-inhibiting effect on the rat and
2. SALIVATION-INHIBITING EFFECT IN THE RAT
The secretion of saliva was initiated by subcutaneous administration of 2 mg/kg of pilocarpine. The saliva was absorbed with blotting paper and the surface area covered was measured every 5 minutes by planimetry. The dosage of the substance which reduced the volume of saliva by 50% was determined graphically. For the results see Table II.

[1] = tested on: acetylcholine activity on the bladder; experiment: Inhibition of the effect of acetylcholine on the bladder in guinea pigs; assay type: in vivo, guinea pig; conditions: Cavia porcellus, 5 min
Method: (§2) The objective of the methods was to confirm the selectivity of the antimuscarinic effect. Those substances which had been selected on the basis of "in vitro" tests were tested for their 3. […] M1 /M2 SELECTIVITY IN THE RAT 3. INHIBITION OF THE EFFECT OF ACETYLCHOLINE ON THE BLADDER, BRONCHI AND HEART RATE IN GUINEA PIGS 5 minutes after the administration of the test substance, 10 microgram/kg of acetylcholine were simultaneously injected intravenously and intra-arterially into anaesthetised guinea pigs. The heart rate was recorded directly by extracorporeal derivation of the ECG, the expiration resistance according to Konzett-Ro ler and contraction of the exposed bladder. In order to determine the inhibition of the acetylcholine activity on the organs under investigation, dosage/activity curves were recorded and from them -log ED50 values were determined.

M2 = target: T1, M2 (Rattus norvegicus, UniProt P10980); experiment: M1/M2 selectivity in the rat: inhibition of vagal bradycardia (M2); assay type: in vivo, male THOM rats; conditions: iv, 5 min
T1 construct: The bradycardia caused by vagus stimulation; from tissue; host or cells: heart of the living rat (male THOM rats, in vivo)
T1 sequence (P10980 1-466): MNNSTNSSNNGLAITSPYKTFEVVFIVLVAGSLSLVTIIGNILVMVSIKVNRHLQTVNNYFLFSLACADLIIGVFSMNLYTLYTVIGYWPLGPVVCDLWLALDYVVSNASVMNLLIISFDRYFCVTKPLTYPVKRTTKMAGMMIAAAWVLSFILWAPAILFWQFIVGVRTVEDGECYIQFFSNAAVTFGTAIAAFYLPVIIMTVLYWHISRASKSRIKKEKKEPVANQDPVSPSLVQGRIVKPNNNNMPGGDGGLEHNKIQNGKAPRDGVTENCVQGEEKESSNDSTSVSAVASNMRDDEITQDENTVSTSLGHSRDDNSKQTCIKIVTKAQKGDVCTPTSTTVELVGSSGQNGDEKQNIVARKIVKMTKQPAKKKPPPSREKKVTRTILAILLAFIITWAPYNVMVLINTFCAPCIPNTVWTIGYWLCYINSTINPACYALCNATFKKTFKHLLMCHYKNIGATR
From the text: (§3) B. Investigation of functional selectivity of the antimuscarinic effect
(§4) Substances with antimuscarinic properties inhibit the effects of agonists supplied exogenically or of acetylcholine, which is released from cholinergic nerve endings. The following is a description of some methods that are suitable for the detection of cardioselective antimuscarinic agents.
as §1
(§5) 1. M1 /M2 selectivity in the rat,
(§6) 3. Inhibition of the acetylcholine effect on the bladder, bronchi and heart rate in the guinea pig. 1. M1 /M2 SELECTIVITY IN THE RAT
The method used was described by Hammer and Giachetti (Life Sciences 31, 2991-2998 (1982)). 5 minutes after the intravenous injection of increasing doses of the substance, either the right vagus was electrically stimulated (frequency: 25 Hz; pulse width: 2ms; duration of stimulus: 30s; voltage: supramaximal) or 0.3 mg/kg of McN-A-343 were intravenously injected into male THOM rats. The bradycardia caused by vagus stimulation and the rise in blood pressure caused by McN-A-343 were determined. The dosage of the substances which reduced either the vagal bradycardia (M2) or the rise in blood pressure (M1) by 50% was determined graphically. For the results see Table II.

M1 = target: T2, M1 (Rattus norvegicus, UniProt P08482); experiment: M1/M2 selectivity in the rat: inhibition of McN-A-343-induced rise in blood pressure (M1); assay type: in vivo, male THOM rats; conditions: iv, 5 min
T2 construct: from tissue; host or cells: living rat (male THOM rats, in vivo); sympathetic ganglia by own knowledge
T2 sequence (P08482 1-460): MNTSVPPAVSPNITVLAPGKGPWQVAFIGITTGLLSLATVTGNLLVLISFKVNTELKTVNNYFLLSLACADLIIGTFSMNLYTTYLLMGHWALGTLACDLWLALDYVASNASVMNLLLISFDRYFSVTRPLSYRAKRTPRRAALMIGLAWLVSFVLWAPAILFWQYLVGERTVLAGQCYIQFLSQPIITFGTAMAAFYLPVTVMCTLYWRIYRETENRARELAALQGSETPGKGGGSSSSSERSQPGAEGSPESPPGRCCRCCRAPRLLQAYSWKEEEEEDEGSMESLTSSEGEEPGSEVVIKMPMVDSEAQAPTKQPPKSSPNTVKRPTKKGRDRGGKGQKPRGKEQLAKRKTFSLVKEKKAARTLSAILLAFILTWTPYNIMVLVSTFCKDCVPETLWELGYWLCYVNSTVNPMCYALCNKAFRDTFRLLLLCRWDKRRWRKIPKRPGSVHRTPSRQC
From the text: as §3, §4, §1, §5, §6
The dosage of the substances which reduced either the vagal bradycardia (M2) or the rise in blood pressure (M1) by 50% was determined graphically. For the results see Table II.

[2] = tested on: acetylcholine activity on heart rate; experiment: Inhibition of the effect of acetylcholine on heart rate in guinea pigs; assay type: in vivo, guinea pig; conditions: Cavia porcellus, 5 min
Method: as §2

[3] = target: T3, muscarinic receptors (heart) (Rattus norvegicus, UniProt P10980); experiment: biochemical; set-up: species or system male Sprague-Dawley rats; conditions: whole heart homogenate; 0.3 nanomolar 3H-NMS; 30 C; 45 minutes; pH 7.4; read-out: Receptor Binding Tests IC50, Heart
T3 sequence (P10980 1-466): T1 sequence (P10980 1-466)

[4] = tested on: acetylcholine activity on the bronchi; experiment: Inhibition of the effect of acetylcholine on the bronchi in guinea pigs; assay type: in vivo; conditions: Cavia porcellus, 5 min; anaesthetised guinea pig; 5 minutes after test substance; 10 microgram/kg acetylcholine; expiration resistance; read-out: -log ED50, Bronchi (converted)
Method: as §2

[5] = target: muscarinic receptors (submandibular gland) (Rattus norvegicus, UniProt P08483); experiment: biochemical; set-up: species or system male Sprague-Dawley rats; conditions: submandibular gland homogenate; 0.3 nanomolar 3H-NMS; 30 C; 45 minutes; pH 7.4; read-out: Receptor Binding Tests IC50, Submandibular gland
Sequence of muscarinic receptors (submandibular gland) (P08483 whole entry): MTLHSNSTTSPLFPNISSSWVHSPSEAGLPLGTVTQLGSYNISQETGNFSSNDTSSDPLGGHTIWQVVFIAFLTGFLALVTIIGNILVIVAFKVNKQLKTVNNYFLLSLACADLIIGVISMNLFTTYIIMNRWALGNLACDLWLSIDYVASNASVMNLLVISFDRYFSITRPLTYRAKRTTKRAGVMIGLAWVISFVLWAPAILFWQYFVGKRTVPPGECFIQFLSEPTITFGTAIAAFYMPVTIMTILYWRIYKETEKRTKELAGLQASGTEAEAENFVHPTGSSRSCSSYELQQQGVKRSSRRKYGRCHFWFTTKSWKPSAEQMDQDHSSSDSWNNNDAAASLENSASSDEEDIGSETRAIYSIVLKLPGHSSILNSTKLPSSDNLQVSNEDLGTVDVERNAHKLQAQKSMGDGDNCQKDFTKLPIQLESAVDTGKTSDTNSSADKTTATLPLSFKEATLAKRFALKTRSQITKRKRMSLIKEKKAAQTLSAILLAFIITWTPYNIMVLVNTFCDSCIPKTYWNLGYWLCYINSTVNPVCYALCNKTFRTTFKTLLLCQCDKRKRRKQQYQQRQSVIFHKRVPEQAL
Method: (§7) A. Studies of binding to muscarinic receptors:
(§8) In vitro measurement of the IC50 value
(§9) The organs were donated by male Sprague-Dawley rats weighing 180-220 g. After the heart and submandibular gland and cerebral cortex had been removed, all other steps were carried out in ice cold Hepes HCl buffer (pH 7.4; 100 millimolar NaCl, 10 millimolar MgClz). The whole heart was cut up with scissors. All the organs were then homogenised in a Potter apparatus.
(§10) For the binding test the homogenised organs were diluted as follows:
Submandibular gland 1:400
(§11) The homogenised organs were incubated at a certain concentration of the radioligand and at a series of concentrations of the non-radioactive test substances in an Eppendorf centrifuge tube at 30 C. Incubation lasted 45 minutes. The radioligand used was 0.3 nanomolar 3H-N-methylscopolamine (^3 H-NMS). Incubation was ended by the addition of ice cold buffer followed by vacuum filtration. The filters were rinsed with cold buffer and their radioactivity was determined. It represents the sum of specific and non-specific binding of ^3 H-NMS. The proportion of non-specific binding was defined as the radioactivity which was bound in the presence of 1 micromolar quinuclidinylbenzylate. Each measurement was taken four times. The IC50 values of the non-labelled test substances were determined graphically. They represent that concentration of test substance at which the specific binding of 3H-NMS to the muscarinic receptors in the various organs was inhibited by 50%.

[6] = target: muscarinic receptors (cerebral cortex); experiment: Muscarinic receptor binding, cerebral cortex (displacement of 3H-N-methylscopolamine); set-up: species or system male Sprague-Dawley rats; conditions: cerebral cortex homogenate; 0.3 nanomolar 3H-NMS; 30 C; 45 minutes; pH 7.4; read-out: Receptor Binding Tests IC50, Cortex
Method: as §7, §8, §9, §10
as §11, with “They represent that concentration of test substance at which the specific binding of 3H-NMS to the muscarinic receptors in the various organs was inhibited by 50%.” left out

[7] = anaesthetised guinea pig, 5 minutes after test substance, 10 microgram/kg acetylcholine, contraction of exposed bladder, read-out: -log ED50, Bladder (converted)
[8] = i.v., 5 minutes after injection, vagus stimulation 25 Hz, read-out: -log ED50, Heart (vagal bradycardia, M2) (converted)
[9] = i.v., 5 minutes after injection, 0.3 mg/kg McN-A-343 i.v., read-out: -log ED50, Blood pressure (McN-A-343 pressor response, M1) (converted)
[10] = anaesthetised guinea pig, 5 minutes after test substance, 10 microgram/kg acetylcholine, read-out: -log ED50, Heart (converted)

| SMILES | ED50 (secretion of saliva) [µmol/kg] | ED50 [1, 7] [µmol/kg] | ED50 (M2; [8]) [µmol/kg] | ED50 (M1; [9]) [µmol/kg] | ED50 [2, 10] [µmol/kg] | IC50 [3] [nM] | ED50 [4] [µmol/kg] | IC50 [5] [nM] | IC50 [6] [nM] | ED50 ([1]; read-out: -log ED50, Bladder) [µmol/kg] | ED50 (M2; read-out: -log ED50, Heart (vagal bradycardia, M2)) [µmol/kg] | ED50 (M1; read-out: -log ED50, Blood pressure (McN-A-343 pressor response, M1)) [µmol/kg] | ED50 ([2]; read-out: -log ED50, Heart) [µmol/kg] |
| --- | --- | --- | --- | --- | --- | --- | --- | --- | --- | --- | --- | --- | --- |
| CN(CCC1CCCN1C)CC(=O)N1c2ccccc2C(=O)Nc2cccnc21 (stereo not drawn) [Substance A, hydrochloride] | 0.158 | 0.141 | 0.0123 | 0.0871 | 0.02 | 9 | 0.0251 | 80 | – | – | – | – | – |
| CCN(CCC1CCCN1C)CC(=O)N1c2cc(Cl)ccc2C(=O)Nc2cccnc21 (stereo not drawn) [Substance B, 9-chloro-5,11-dihydro-11[[[2-(1-methyl-2-pyrrolidinyl)ethyl]ethylamino]acetyl]-6H-pyrido-[2,3-b][1,4]benzodiazepin-6-one] | – | 0.832 | – | – | 0.1 | 10 | 0.191 | 100 | 70 | – | – | – | – |
| CN(CCC1CCCN1C)CC(=O)N1c2ccccc2NC(=O)c2ccccc21 (stereo not drawn) [Substance C, 5,10-dihydro-5-[[[2-(1-methyl-2-pyrrolidinyl)-ethyl]methylamino]acetyl]-11H-dibenzo[b,e][1,4]-diazepin-11-one hydrochloride] | – | 0.234 | – | – | 0.0288 | 3 | 0.0295 | 20 | 8 | – | – | – | – |
| CCN(CC)CC1CCCCN1CC(=O)N1c2ccccc2C(=O)Nc2cccnc21 (stereo not drawn) [Substance D, 11-[[2-[(diethylamino)methyl]-1-piperidinyl]acetyl]-5,11-dihydro-6H-pyrido[2,3-b][1,4]benzodiazepin-6-one] | 10 | – | 0.38 | 2.34 | – | – | – | – | – | – | – | – | – |
| CN1C2CCC1CC(OC(=O)C(CO)c1ccccc1)C2 (stereo not drawn) [Substance F, atropine, reference compound] | – | – | – | – | – | – | – | – | – | 0.0933 | 0.0115 | 0.0457 | 0.02 |
